Data taken from patent publication US8410144B2, “Substituted indolo-pyridinone compounds” (ArQule, Inc., priority 2009, dated 2013).

Assays:
[1] = biological target: IGF-1R (Homo sapiens, UniProt P08069); assay: IGFR1 activity assay (ELISA); type: biochemical; conditions: for inhibition at 30 µM: read-out: IGF-1R, PCT INH (30 μM), ELISA
Protocol: The disclosed compounds were assayed for their ability to inhibit insulin-like growth factor receptor-1 (IGFR1). Nunc Maxisorb plates were coated with streptavidin by overnight incubation with 100 μL per well of 1 μg/ml Streptavidin in DPBS. Prior to the start of the experiment, the plates were washed with TBST (3×200 μL) and blocked for at least 1 hour by adding 150 μL of 5% BSA/TBST. The plates were washed with TBST (3×200 μL/well) and left to dry immediately before the capture step.
The disclosed test articles and controls (Staurosporine) were prepared using the following assay buffer at 3× desired final concentration (50 mM Tris-HCl, 0.02 mg/ml BSA, 10 mM MgCl2, 0.1 mM Na3VO4, 1 mM EGTA, 12.5 μM ATP, 0.01% NP-40, 1 mM DTT in 10% glycerol/water). 20 μL of the test compounds (or control), 20 μL IGF1R (0.33 ng/μL final concentration), and 20 μL of Pyk-2 (0.05 ng/μL final concentration) were rapidly added to the reaction plate. The plate was incubated at room temperature for one hour.
50 μL was transferred from the reaction plate to the streptavidin coated plate. The capture plate was incubated at room temperature for 30 minutes, then washed with TBST three times. 100 μL/well of Cell Signaling anti-phospho tyrosine was added to the capture plate at a dilution of 1:3000 in 2% BSA/TBST. The plate was incubated for one hour at room temperature then washed 6× with TBST. 100 μL/well of alkaline phosphatase tagged goat anti mouse antibody was added to the capture plate at a dilution of 1:4000 in 2% BSA/TBST. The plate was incubated for one hour at room temperature then washed with TBST six times.
The fluorescent readout is initiated by the addition of 100 μL/well of Attophos reagent (6 mg/10 mL). The reading is done on the Perkin Elmer Envision system.

[2] = test system: DLD-1; assay: MTS assay, DLD-1 cells; type: cell-based; conditions: 72 hours; for inhibition at 10 µM: Homo sapiens, read-out: DLD-1, MTS cell kill % inhibition
Protocol: (§1) Cells were maintained at 37° C., 5% CO2 in DMEM media supplemented with 1% fetal bovine serum, penicillin/streptomycin and fungizone (Invitrogen). Cells were seeded into 96-well tissue culture plates at 3000 per well and cultured at 37° C. for 18 hours. Test compounds were dissolved and diluted to 300× in DMSO then diluted 1:40 in DMEM. Cells were incubated with test compounds for 72 hours followed by incubation with tetrazolium compound (3-(4,5-dimethylthiazol-2-yl)-5-(3-carboxymethoxyphenyl)-2-(4-sulfophenyl)-2H-tetrazolium, inner salt; MTS) and the electron coupling reagent, phenazine methosulfate (PMS) for 4 hours. […] The ability of compounds to inhibit cell growth in this assay is correlated with the reduction of dehydrogenase enzyme activity found in metabolically active cells. The measurement of the absorbance of the formazan was assessed using an ENVISION™ (Perkin Elmer) microplate reader at 492 nm. The calculated IC50 value is the concentration of the test compound that causes a 50% decrease in the absorbance.

[3] = test system: KATO III; assay: MTS assay, KATO III cells; type: cell-based; conditions: 72 hours; for inhibition at 10 µM: Homo sapiens, read-out: KATO III, MTS cell kill % inhibition
Protocol: as §1

[4] = test system: NCI-H1299; assay: MTS assay, NCI-H1299 cells; type: cell-based; conditions: 72 hours; for inhibition at 10 µM: Homo sapiens, read-out: NCI-H1299, MTS cell kill % inhibition
Protocol: as §1

[5] = test system: MDA-MB-231; assay: MTS assay, MDA-MB-231 cells; type: cell-based; conditions: 72 hours; for inhibition at 10 µM: Homo sapiens, read-out: MDA-MB-231, MTS cell kill % inhibition
Protocol: as §1

Sequence of IGF-1R (P08069 31-1367): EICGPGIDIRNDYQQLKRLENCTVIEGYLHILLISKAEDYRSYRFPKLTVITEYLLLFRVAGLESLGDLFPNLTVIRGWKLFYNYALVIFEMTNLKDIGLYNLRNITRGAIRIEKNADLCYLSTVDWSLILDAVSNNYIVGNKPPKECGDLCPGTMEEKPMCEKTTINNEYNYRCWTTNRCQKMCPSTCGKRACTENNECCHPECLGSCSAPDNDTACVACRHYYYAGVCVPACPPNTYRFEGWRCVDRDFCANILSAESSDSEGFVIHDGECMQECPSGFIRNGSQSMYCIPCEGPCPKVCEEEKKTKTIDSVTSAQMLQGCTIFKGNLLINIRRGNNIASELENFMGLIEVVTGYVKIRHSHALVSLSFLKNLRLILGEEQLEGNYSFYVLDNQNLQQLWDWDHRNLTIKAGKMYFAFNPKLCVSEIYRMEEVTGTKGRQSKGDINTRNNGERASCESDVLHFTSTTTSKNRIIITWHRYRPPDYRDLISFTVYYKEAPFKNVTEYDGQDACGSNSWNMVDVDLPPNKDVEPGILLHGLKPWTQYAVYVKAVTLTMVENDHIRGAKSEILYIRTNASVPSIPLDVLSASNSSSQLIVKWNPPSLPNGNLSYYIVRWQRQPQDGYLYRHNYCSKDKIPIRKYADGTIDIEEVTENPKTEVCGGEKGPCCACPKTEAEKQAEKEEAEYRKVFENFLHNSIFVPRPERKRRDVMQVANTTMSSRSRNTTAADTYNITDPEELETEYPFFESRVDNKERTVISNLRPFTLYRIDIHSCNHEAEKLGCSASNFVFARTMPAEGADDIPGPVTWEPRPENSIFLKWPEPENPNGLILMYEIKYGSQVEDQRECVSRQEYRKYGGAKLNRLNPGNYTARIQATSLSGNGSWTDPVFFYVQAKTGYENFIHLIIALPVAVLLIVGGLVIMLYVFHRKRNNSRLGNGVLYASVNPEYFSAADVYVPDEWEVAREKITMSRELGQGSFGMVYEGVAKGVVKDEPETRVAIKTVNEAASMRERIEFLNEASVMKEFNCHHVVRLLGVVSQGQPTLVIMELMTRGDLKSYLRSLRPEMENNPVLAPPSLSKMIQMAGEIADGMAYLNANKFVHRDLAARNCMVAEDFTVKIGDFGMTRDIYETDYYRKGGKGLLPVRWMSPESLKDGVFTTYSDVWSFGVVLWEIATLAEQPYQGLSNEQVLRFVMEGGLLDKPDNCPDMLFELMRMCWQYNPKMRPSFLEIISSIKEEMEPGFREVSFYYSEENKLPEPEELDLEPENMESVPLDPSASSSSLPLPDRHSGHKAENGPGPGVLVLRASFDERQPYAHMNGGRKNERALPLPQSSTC

Row | Compound | inhibition at 30 µM [1] [%] | inhibition at 10 µM [2] [%] | inhibition at 10 µM [3] [%] | inhibition at 10 µM [4] [%] | inhibition at 10 µM [5] [%] | IGF-1R, PCT INH (30 μM), ELISA [1] | DLD-1, MTS cell kill % inhibition ([2]; 10 μM) | KATO III, MTS cell kill % inhibition ([3]; 10 μM) | NCI-H1299, MTS cell kill % inhibition ([4]; 10 μM) | MDA-MB-231, MTS cell kill % inhibition ([5]; 10 μM)
1 | O=C(NCCc1ccccn1)c1ccc2[nH]c(-c3ccc[nH]c3=O)c(-c3ccc(-c4ccccc4)cc3)c2c1 [Compound 39, 3-biphenyl-4-yl-2-(2-oxo-1,2-dihydropyridin-3-yl)-N-(2-pyridin-2-ylethyl)-1H-indole-5-carboxamide] | 50 to 79 | 80 to 100 | 80 to 100 | 80 to 100 | 80 to 100 |  |  |  |  | 
2 | O=C(NCc1ccccc1)c1ccc2[nH]c(-c3ccc[nH]c3=O)c(-c3ccc(-c4ccccc4)cc3)c2c1 [Compound 40, N-benzyl-3-biphenyl-4-yl-2-(2-oxo-1,2-dihydropyridin-3-yl)-1H-indole-5-carboxamide] | < 50 | < 50 | < 50 | 50 to 79 | < 50 |  |  |  |  | 
3 | O=C(NCc1ccc(F)cc1F)c1ccc2[nH]c(-c3ccc[nH]c3=O)c(-c3ccccc3)c2c1 [Compound 10, N-(2,4-difluorobenzyl)-2-(2-oxo-1,2-dihydropyridin-3-yl)-3-phenyl-1H-indole-5-carboxamide] | 80 to 100 | 80 to 100 | 80 to 100 | 80 to 100 | < 50 |  |  |  |  | 
4 | COc1ccc(CNC(=O)c2ccc3[nH]c(-c4ccc[nH]c4=O)c(-c4ccccc4)c3c2)cc1OC [Compound 32, N-(3,4-dimethoxybenzyl)-2-(2-oxo-1,2-dihydropyridin-3-yl)-3-phenyl-1H-indole-5-carboxamide] | 80 to 100 | 50 to 79 | 80 to 100 | 80 to 100 | < 50 |  |  |  |  | 
5 | O=C(NC1CCC1)c1ccc2[nH]c(-c3ccc[nH]c3=O)c(-c3ccccc3)c2c1 [Compound 26, N-cyclobutyl-2-(2-oxo-1,2-dihydropyridin-3-yl)-3-phenyl-1H-indole-5-carboxamide] | 80 to 100 | 80 to 100 | 80 to 100 | 80 to 100 | 80 to 100 |  |  |  |  | 
6 | 3-biphenyl-4-yl-N-(2- chlorophenyl)-2-(2-oxo-1,2- dihydropyridin-3-yl)-1H- indole-5-carboxamide [Compound 35] |  |  |  |  |  | C (C = <50% inhibition) | C (C = <50% inhibition) | C (C = <50% inhibition) | C (C = <50% inhibition) | C (C = <50% inhibition)
7 | CN(CCc1ccccc1)C(=O)c1ccc2[nH]c(-c3ccc[nH]c3=O)c(-c3ccccc3)c2c1 [Compound 23, N-methyl-2-(2-oxo-1,2-dihydropyridin-3-yl)-3-phenyl-N-(2-phenylethyl)-1H-indole-5-carboxamide] | 80 to 100 | 80 to 100 | 80 to 100 | 80 to 100 | 80 to 100 |  |  |  |  | 
8 | O=C(c1ccc2[nH]c(-c3ccc[nH]c3=O)c(-c3ccc(-c4ccccc4)cc3)c2c1)N1CCN(CCN2CCOCC2)CC1 [Compound 37, 3-(3-biphenyl-4-yl-5-{[4-(2-morpholin-4-ylethyl)piperazin-1-yl]carbonyl]-1H-indol-2-yl)pyridin-2(1H)-one] | 80 to 100 | 80 to 100 | 80 to 100 | 80 to 100 | 80 to 100 |  |  |  |  | 
9 | O=C(Nc1ccc(F)cc1Cl)c1ccc2[nH]c(-c3ccc[nH]c3=O)c(-c3ccccc3)c2c1 [Compound 18, N-(2-chloro-4-fluorophenyl)-2-(2-oxo-1,2-dihydropyridin-3-yl)-3-phenyl-1H-indole-5-carboxamide] | < 50 | 50 to 79 | 50 to 79 | 80 to 100 | < 50 |  |  |  |  | 

Second part, led by results:

Row | inhibition at 30 µM [1] [%] | Compound | inhibition at 10 µM [2] [%] | inhibition at 10 µM [3] [%] | inhibition at 10 µM [4] [%] | inhibition at 10 µM [5] [%] | IGF-1R, PCT INH (30 μM), ELISA [1] | DLD-1, MTS cell kill % inhibition ([2]; 10 μM) | KATO III, MTS cell kill % inhibition ([3]; 10 μM) | NCI-H1299, MTS cell kill % inhibition ([4]; 10 μM) | MDA-MB-231, MTS cell kill % inhibition ([5]; 10 μM)
10 | 80 to 100 | COc1ccc(-c2c(-c3ccc[nH]c3=O)[nH]c3ccc(C(=O)NCCCN4CCOCC4)cc23)cc1OC [Compound 73, 3-(3,4-dimethoxyphenyl)-N-(3-morpholin-4-ylpropyl)-2-(2-oxo-1,2-dihydropyridin-3-yl)-1H-indole-5-carboxamide] | < 50 | < 50 | < 50 | < 50 |  |  |  |  | 
11 | 80 to 100 | O=C(NCCCN1CCOCC1)c1ccc2[nH]c(-c3ccc[nH]c3=O)c(-c3cccc(F)c3)c2c1 [Compound 82, 3-(3-fluorophenyl)-N-(3-morpholin-4-ylpropyl)-2-(2-oxo-1,2-dihydropyridin-3-yl)-1H-indole-5-carboxamide] | 50 to 79 | 80 to 100 | 80 to 100 | < 50 |  |  |  |  | 
12 | 80 to 100 | COc1cccc(-c2c(-c3ccc[nH]c3=O)[nH]c3ccc(C(=O)NCCCN4CCOCC4)cc23)c1 [Compound 63, 3-(3-methoxyphenyl)-N-(3-morpholin-4-ylpropyl)-2-(2-oxo-1,2-dihydropyridin-3-yl)-1H-indole-5-carboxamide] | 50 to 79 | 80 to 100 | 80 to 100 | 50 to 79 |  |  |  |  | 
13 | 80 to 100 | CN(C)CCCN(C)C(=O)c1ccc2[nH]c(-c3ccc[nH]c3=O)c(-c3ccc(-c4ccccc4)cc3)c2c1 [Compound 46, 3-biphenyl-4-yl-N-[3-(dimethylamino)propyl]-N-methyl-2-(2-oxo-1,2-dihydropyridin-3-yl)-1H-indole-5-carboxamide] | 80 to 100 | 80 to 100 | 80 to 100 | 80 to 100 |  |  |  |  | 
14 | 50 to 79 | CN1CCC(N2CCN(C(=O)c3ccc4[nH]c(-c5ccc[nH]c5=O)c(-c5ccc(-c6ccccc6)cc5)c4c3)CC2)CC1 [Compound 50, 3-(3-biphenyl-4-yl-5-{[4-(1-methylpiperidin-4-yl)piperazin-1-yl]carbonyl}-1H-indol-2-yl)pyridin-2(1H)-one] | 80 to 100 | 80 to 100 | 80 to 100 | 80 to 100 |  |  |  |  | 
15 | 80 to 100 | O=C(NCCCN1CCOCC1)c1ccc2[nH]c(-c3ccc[nH]c3=O)c(-c3cccc(Cl)c3)c2c1 [Compound 62, 3-(3-chlorophenyl)-N-(3-morpholin-4-ylpropyl)-2-(2-oxo-1,2-dihydropyridin-3-yl)-1H-indole-5-carboxamide] | 80 to 100 | 80 to 100 | 80 to 100 | 80 to 100 |  |  |  |  | 
16 | 80 to 100 | COc1ccc(-c2c(-c3ccc[nH]c3=O)[nH]c3ccc(C(=O)NCCCN4CCOCC4)cc23)cc1 [Compound 80, 3-(4-methoxyphenyl)-N-(3-morpholin-4-ylpropyl)-2-(2-oxo-1,2-dihydropyridin-3-yl)-1H-indole-5-carboxamide] | 50 to 79 | 80 to 100 | 50 to 79 | 50 to 79 |  |  |  |  | 
17 | 80 to 100 | O=C(NCCCN1CCOCC1)c1ccc2[nH]c(-c3ccc[nH]c3=O)c(-c3ccc(F)cc3F)c2c1 [Compound 77, 3-(2,4-difluorophenyl)-N-(3-morpholin-4-ylpropyl)-2-(2-oxo-1,2-dihydropyridin-3-yl)-1H-indole-5-carboxamide] | < 50 | < 50 | < 50 | < 50 |  |  |  |  | 
18 | 80 to 100 | CN1CCN(C(=O)c2ccc3[nH]c(-c4ccc[nH]c4=O)c(-c4ccc(-c5ccccc5)cc4)c3c2)CC1 [Compound 52, 3-{3-biphenyl-4-yl-5-[(4-methylpiperazin-1-yl)carbonyl]-1H-indol-2-yl}pyridin-2(1H)-one] | 80 to 100 | 80 to 100 | 80 to 100 | 80 to 100 |  |  |  |  | 
